Data taken from patent US9474790B2, “Stable, protracted GLP-1/glucagon receptor co-agonists for medical use” (Novo Nordisk A/S, priority 2013, dated 2016).
Numbered stars: 1 amine (or outer) side, 2 acyl side, 3 side chain; on linkers, the order of the positions; unused ones are H or OH. Square brackets hold non-standard residues; d marks the D form. Side chains are listed from the residue outwards. Peptide text beside a SMILES is read from it. * marks the point of attachment. C18 diacid = O=C(O)CCCCCCCCCCCCCCCCC(=O)*; γGlu = O=C(O)[C@H](CCC(=O)[*:2])N[*:1]; Ac4c = NC1(C(=O)O)CCC1; AEEA = NCCOCCOCC(=O)O; Aib = CC(C)(N)C(=O)O

Tests used:
human GLP-1 receptor = molecular target: T1, human GLP-1 receptor (Homo sapiens, UniProt P43220); assay: GLP-1 receptor potency, CRE luciferase reporter gene assay in BHK cells; format: cell-based; details: BHK cells expressing human GLP-1 receptor, read-out: EC50 GLP-1R
T1 construct: expressed in transfected cells; host or cells: BHK cells (parent BHKTS13), clone FCW467-12A/KZ10-1, with CRE luciferase
T1 sequence (P43220 24-463): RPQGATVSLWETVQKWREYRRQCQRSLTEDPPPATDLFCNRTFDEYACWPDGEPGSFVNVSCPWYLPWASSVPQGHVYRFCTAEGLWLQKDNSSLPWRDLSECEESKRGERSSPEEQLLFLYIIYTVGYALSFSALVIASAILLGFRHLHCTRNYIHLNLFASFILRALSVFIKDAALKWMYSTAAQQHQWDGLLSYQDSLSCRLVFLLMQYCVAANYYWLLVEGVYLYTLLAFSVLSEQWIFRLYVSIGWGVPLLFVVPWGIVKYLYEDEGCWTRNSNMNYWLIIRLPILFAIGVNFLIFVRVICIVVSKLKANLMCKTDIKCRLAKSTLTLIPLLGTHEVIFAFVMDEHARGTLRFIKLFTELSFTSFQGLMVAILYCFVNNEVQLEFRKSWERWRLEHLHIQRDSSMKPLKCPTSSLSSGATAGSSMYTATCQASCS
Outline: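 Potency as cAMP-driven firefly luciferase signal after 3 h, 37° C exposure to 10-fold dilutions (final 1×10EE-13–1×10EE-6 M). Stable hGLP-1R/CRE-luc BHK clone, 5×10EE3 cells/well, medium containing 2% ovalbumin and 0.2% Pluronic F-68; EC50 (pM) from variable-slope non-linear regression.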

[1] = Thioflavin T (ThT) fibrillation assay for physical stability; format: physicochemical; details: 250 μM in 10 mM HEPES buffer, pH 7.5, 37° C., shaking 960 rpm
Outline: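 Fibrillation was followed by ThT (1 μM) fluorescence every 20 min, 444/485 nm, for 250 μM peptide in 10 mM HEPES pH 7.5 shaken at 960 rpm, 37° C. Lag time (t0−2τ) and apparent rate constant (1/τ) come from a sigmoidal fit. Recovery is % of initial concentration remaining soluble after centrifugation and filtration (RP-HPLC).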

Compound	EC50 (human GLP-1 receptor)	THT assay Lag time (Ex. 76) [1]
CC(C)C[C@H](NC(=O)[C@H](Cc1c[nH]c2ccccc12)NC(=O)[C@H](CCC(N)=O)NC(=O)[C@@H](NC(=O)[C@H](Cc1ccccc1)NC(=O)[C@H](CCC(=O)O)NC(=O)[C@H](CCCNC(=N)N)NC(=O)[C@H](C)NC(=O)[C@H](CCCNC(=N)N)NC(=O)[C@H](CCCNC(=N)N)NC(=O)C(C)(C)NC(=O)[C@H](CC(=O)O)NC(=O)[C@H](CC(C)C)NC(=O)[C@H](Cc1ccc(O)cc1)NC(=O)[C@H](CCCCN)NC(=O)[C@H](CO)NC(=O)[C@H](CC(C)C)NC(=O)[C@H](CC(=O)O)NC(=O)[C@H](CO)NC(=O)[C@@H](NC(=O)[C@H](Cc1ccccc1)NC(=O)[C@@H](NC(=O)CNC(=O)[C@H](CCC(N)=O)NC(=O)C(C)(C)NC(=O)[C@@H](N)Cc1c[nH]cn1)[C@@H](C)O)[C@@H](C)O)C(C)C)C(=O)N[C@@H](CC(C)C)C(=O)N[C@@H](CCCCNC(=O)CC[C@H](NC(=O)CC[C@H](NC(=O)COCCOCCNC(=O)COCCOCCNC(=O)CC[C@H](NC(=O)CCCCCCCCCCCCCCCCC(=O)O)C(=O)O)C(=O)O)C(=O)O)C(=O)N[C@H](C(N)=O)[C@@H](C)O [Example 51, N^ε28-[(4S)-4-carboxy-4-[[(4S)-4-carboxy-4-[[2-[2-[2-[[2-[2-[2-[[(4S)-4-carboxy-4-(17-carboxyheptadecanoylamino)butanoyl]amino]ethoxy]ethoxy]acetyl]amino]ethoxy]ethoxy]acetyl]amino]butanoyl]amino]butanoyl]-[Aib2,Leu10,Aib16,Arg20,Glu21,Leu27,Lys28]-Glucagon amide] (H-H[Aib]QGTFTSDLSKYLD[Aib]RRAREFVQWLLK([γGlu-γGlu-AEEA-AEEA-γGlu-C18 diacid])T-NH2; N-terminus assumed)	6 pM	45 h
CC(C)C[C@H](NC(=O)[C@H](CC(=O)O)NC(=O)[C@H](CC(C)C)NC(=O)[C@H](Cc1ccc(O)cc1)NC(=O)[C@H](CCCCN)NC(=O)[C@H](CO)NC(=O)[C@H](CC(C)C)NC(=O)[C@H](CC(=O)O)NC(=O)[C@H](CO)NC(=O)[C@@H](NC(=O)[C@H](Cc1ccccc1)NC(=O)[C@@H](NC(=O)CNC(=O)[C@H](CCC(N)=O)NC(=O)C1(NC(=O)[C@@H](N)Cc2c[nH]cn2)CCC1)[C@@H](C)O)[C@@H](C)O)C(=O)N[C@@H](CCCNC(=N)N)C(=O)N[C@@H](CCCNC(=N)N)C(=O)N[C@@H](C)C(=O)N[C@@H](CCCNC(=N)N)C(=O)N[C@@H](CCC(=O)O)C(=O)N[C@@H](Cc1ccccc1)C(=O)N[C@H](C(=O)N[C@@H](CCC(N)=O)C(=O)N[C@@H](Cc1c[nH]c2ccccc12)C(=O)N[C@@H](CC(C)C)C(=O)N[C@@H](CC(C)C)C(=O)N[C@@H](CCCCNC(=O)CC[C@H](NC(=O)CC[C@H](NC(=O)COCCOCCNC(=O)COCCOCCNC(=O)CC[C@H](NC(=O)CC[C@H](NC(=O)CCCCCCCCCCCCCCCCC(=O)O)C(=O)O)C(=O)O)C(=O)O)C(=O)O)C(=O)N[C@H](C(N)=O)[C@@H](C)O)C(C)C [Example 49, N^ε28-[(4S)-4-carboxy-4-[[(4S)-4-carboxy-4-[[2-[2-[2-[[2-[2-[2-[[(4S)-4-carboxy-4-[[(4S)-4-carboxy-4-(17-carboxyheptadecanoylamino)butanoyl]amino]butanoyl]amino]ethoxy]ethoxy]acetyl]amino]ethoxy]ethoxy]acetyl]amino]butanoyl]amino]butanoyl]-[Acb2,Leu10,Leu16,Arg20,Glu21,Leu27,Lys28]-Glucagon amide] (H-H[Ac4c]QGTFTSDLSKYLDLRRAREFVQWLLK([γGlu-γGlu-AEEA-AEEA-γGlu-γGlu-C18 diacid])T-NH2; N-terminus assumed)	17 pM	45 h

The remaining compounds from weak to strong by EC50 (human GLP-1 receptor), led by results:

EC50 (human GLP-1 receptor)	THT assay Lag time (Ex. 76) [1]	Compound
17 pM	45 h	CC(C)C[C@H](NC(=O)[C@H](CC(=O)O)NC(=O)[C@H](CC(C)C)NC(=O)[C@H](Cc1ccc(O)cc1)NC(=O)[C@H](CCCCN)NC(=O)[C@H](CO)NC(=O)[C@H](CC(C)C)NC(=O)[C@H](CC(=O)O)NC(=O)[C@H](CO)NC(=O)[C@@H](NC(=O)[C@H](Cc1ccccc1)NC(=O)[C@@H](NC(=O)CNC(=O)[C@H](CCC(N)=O)NC(=O)C1(NC(=O)[C@@H](N)Cc2c[nH]cn2)CCC1)[C@@H](C)O)[C@@H](C)O)C(=O)N[C@@H](CCCCN)C(=O)N[C@@H](CCCNC(=N)N)C(=O)N[C@@H](C)C(=O)N[C@@H](CCCNC(=N)N)C(=O)N[C@@H](CCC(=O)O)C(=O)N[C@@H](Cc1ccccc1)C(=O)N[C@H](C(=O)N[C@@H](CCC(N)=O)C(=O)N[C@@H](Cc1c[nH]c2ccccc12)C(=O)N[C@@H](CC(C)C)C(=O)N[C@@H](CC(C)C)C(=O)N[C@@H](CCCCNC(=O)CC[C@H](NC(=O)CC[C@H](NC(=O)COCCOCCNC(=O)COCCOCCNC(=O)CC[C@H](NC(=O)CC[C@H](NC(=O)CCCCCCCCCCCCCCCCC(=O)O)C(=O)O)C(=O)O)C(=O)O)C(=O)O)C(=O)N[C@H](C(N)=O)[C@@H](C)O)C(C)C [Example 47, N^ε28-[(4S)-4-carboxy-4-[[(4S)-4-carboxy-4-[[2-[2-[2-[[2-[2-[2-[[(4S)-4-carboxy-4-[[(4S)-4-carboxy-4-(17-carboxyheptadecanoylamino)butanoyl]amino]butanoyl]amino]ethoxy]ethoxy]acetyl]amino]ethoxy]ethoxy]acetyl]amino]butanoyl]amino]butanoyl]-[Acb2,Leu10,Leu16,Lys17,Arg20,Glu21,Leu27,Lys28]-Glucagon amide] (H-H[Ac4c]QGTFTSDLSKYLDLKRAREFVQWLLK([γGlu-γGlu-AEEA-AEEA-γGlu-γGlu-C18 diacid])T-NH2; N-terminus assumed)
4.1 pM	42 h	CC(C)C[C@H](NC(=O)[C@H](Cc1ccc(O)cc1)NC(=O)[C@H](CCCCN)NC(=O)[C@H](CO)NC(=O)[C@H](CC(C)C)NC(=O)[C@H](CC(=O)O)NC(=O)[C@H](CO)NC(=O)[C@@H](NC(=O)[C@H](Cc1ccccc1)NC(=O)[C@@H](NC(=O)CNC(=O)[C@H](Cc1c[nH]cn1)NC(=O)C(C)(C)NC(=O)[C@@H](N)Cc1c[nH]cn1)[C@@H](C)O)[C@@H](C)O)C(=O)N[C@@H](CCC(=O)O)C(=O)N[C@@H](CO)C(=O)N[C@@H](CCCCN)C(=O)N[C@@H](CCCNC(=N)N)C(=O)N[C@@H](C)C(=O)N[C@@H](CCCNC(=N)N)C(=O)N[C@@H](CCC(=O)O)C(=O)N[C@@H](Cc1ccccc1)C(=O)N[C@H](C(=O)N[C@@H](CCC(N)=O)C(=O)N[C@@H](Cc1c[nH]c2ccccc12)C(=O)N[C@@H](CC(C)C)C(=O)N[C@@H](CC(C)C)C(=O)N[C@@H](CCCCNC(=O)CC[C@H](NC(=O)CC[C@H](NC(=O)COCCOCCNC(=O)COCCOCCNC(=O)CC[C@H](NC(=O)CCCCCCCCCCCCCCCCC(=O)O)C(=O)O)C(=O)O)C(=O)O)C(=O)N[C@H](C(N)=O)[C@@H](C)O)C(C)C [Example 27, N^ε28-[(4S)-4-carboxy-4-[[(4S)-4-carboxy-4-[[2-[2-[2-[[2-[2-[2-[[(4S)-4-carboxy-4-(17-carboxyheptadecanoylamino)butanoyl]amino]ethoxy]ethoxy]acetyl]amino]ethoxy]ethoxy]acetyl]amino]butanoyl]amino]butanoyl]-[Aib2,His3,Leu10,Glu15,Lys17,Arg20,Glu21,Leu27, Lys28]-Glucagon amide] (H-H[Aib]HGTFTSDLSKYLESKRAREFVQWLLK([γGlu-γGlu-AEEA-AEEA-γGlu-C18 diacid])T-NH2; N-terminus assumed)
2.7 pM	18 h	CC(C)C[C@H](NC(=O)[C@H](CC(C)C)NC(=O)[C@H](Cc1c[nH]c2ccccc12)NC(=O)[C@H](CCC(N)=O)NC(=O)[C@@H](NC(=O)[C@H](Cc1ccccc1)NC(=O)[C@H](CCC(=O)O)NC(=O)[C@H](CCCNC(=N)N)NC(=O)[C@H](C)NC(=O)[C@H](CCCNC(=N)N)NC(=O)[C@H](CCCNC(=N)N)NC(=O)[C@H](CO)NC(=O)[C@H](CCC(=O)O)NC(=O)[C@H](CC(C)C)NC(=O)[C@H](Cc1ccc(O)cc1)NC(=O)[C@H](CCCCN)NC(=O)[C@H](CO)NC(=O)[C@H](CC(C)C)NC(=O)[C@H](CC(=O)O)NC(=O)[C@H](CO)NC(=O)[C@@H](NC(=O)[C@H](Cc1ccccc1)NC(=O)[C@@H](NC(=O)CNC(=O)[C@H](CCC(N)=O)NC(=O)C(C)(C)NC(=O)[C@@H](N)Cc1c[nH]cn1)[C@@H](C)O)[C@@H](C)O)C(C)C)C(=O)N[C@@H](CC(N)=O)C(=O)N[C@@H](CCCCNC(=O)CC[C@H](NC(=O)COCCOCCNC(=O)COCCOCCNC(=O)CC[C@H](NC(=O)CC[C@H](NC(=O)CCCCCCCCCCCCCCCCC(=O)O)C(=O)O)C(=O)O)C(=O)O)C(N)=O [Example 21, N^ε29-[(4S)-4-carboxy-4-[[2-[2-[2-[[2-[2-[2-[[(4S)-4-carboxy-4-[[(4S)-4-carboxy-4-(17-carboxyheptadecanoylamino)butanoyl]amino]butanoyl]amino]ethoxy]ethoxy]acetyl]amino]ethoxy]ethoxy]acetyl]amino]butanoyl]-[Aib2,Leu10,Glu15,Arg20,Glu21,Leu27,Lys29]-Glucagon amide] (H-H[Aib]QGTFTSDLSKYLESRRAREFVQWLLNK([γGlu-AEEA-AEEA-γGlu-γGlu-C18 diacid])-NH2; N-terminus assumed)
